# Data taken from the supplement of paper PMC11061612.
# Assays:
# [1] = tested on: JVM-3 (B-Cell Non-Hodgkin's Lymphoma); assay: Bliss excess, mean over the matrix (fraction); higher = more synergy
# In short: (§1)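 Bliss excess equals the observed combination effect minus the expected value EA + EB − EA·EB, where EA and EB are the effects of each agent alone. Combination Emax is the second-highest inhibition within the matrix. Inhibition was scaled from CellTiter-Glo 2.0 luminescence, with 0 set by vehicle wells and 1 by blank wells, after 72 hours of two-drug dosing of cells plated in 1536-well plates.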
# [2] = tested on: JVM-3 (B-Cell Non-Hodgkin's Lymphoma); assay: combination Emax (second highest fraction inhibited in the dose matrix, 72 h); higher = more inhibition; extreme values may be limits of the assay
# In short: as §1
# [3] = tested on: RF-48 (B-Cell Non-Hodgkin's Lymphoma); assay: as above
# In short: as §1
# ACHN (Kidney Carcinoma) = assay: as above
# In short: as §1
Structure (SMILES),Bliss excess [1],combination Emax [2],combination Emax [3],combination Emax (ACHN (Kidney Carcinoma))
"CCN(CCO)CCCOc1ccc2c(Nc3cc(CC(=O)Nc4cccc(F)c4)[nH]n3)ncnc2c1 [AZD2811] + C[C@@H]1COCCN1C2=NC(=NC(=C2)C3(CC3)[S@](=N)(=O)C)C4=C5C=CNC5=NC=C4 [AZD6738] (first compound max 1 µM, 7x7, partner max 10 µM)",-0.0101,0.723,0.462,0.905
"Cc1c2c(nn1C)CSCc1cc(n(C)n1)CSc1cc(c3ccccc3c1)OCCCc1c(C(=O)O)n(C)c3c-2c(Cl)ccc13 [AZD5991] + Cn1cnc2c(F)c(Nc3ccc(Br)cc3Cl)c(C(=O)NOCCO)cc21 [Selumetinib] (first compound max 1 µM, 7x7, partner max 3 µM)",-0.0296,0.472,0.21,0.4
"CN(C)CCCOc1ccc(-c2ccc3ncc4c(c3c2)n(C2CCOCC2)c(=O)n4C)cn1 [AZD0156] + CCN(CCO)CCCOc1ccc2c(Nc3cc(CC(=O)Nc4cccc(F)c4)[nH]n3)ncnc2c1 [AZD2811] (first compound max 1 µM, 7x7, partner max 1 µM)",-0.0252,0.543,0.305,0.135
"Cc1c2c(nn1C)CSCc1cc(n(C)n1)CSc1cc(c3ccccc3c1)OCCCc1c(C(=O)O)n(C)c3c-2c(Cl)ccc13 [AZD5991] + C[C@@H]1COCCN1C2=NC(=NC(=C2)C3(CC3)[S@](=N)(=O)C)C4=C5C=CNC5=NC=C4 [AZD6738] (first compound max 1 µM, 7x7, partner max 10 µM)",-0.0642,0.713,0.545,0.948
"CN(C)CCCOc1ccc(-c2ccc3ncc4c(c3c2)n(C2CCOCC2)c(=O)n4C)cn1 [AZD0156] + C[C@@H]1COCCN1C2=NC(=NC(=C2)C3(CC3)[S@](=N)(=O)C)C4=C5C=CNC5=NC=C4 [AZD6738] (first compound max 1 µM, 7x7, partner max 10 µM)",-0.0183,0.783,0.588,0.883
"COc1cccc(OCCCN)c1-c1cc(Nc2cnc(C#N)cn2)n[nH]1 [Prexasertib] + CCc1c2c(nc3ccc(O)cc13)-c1cc3c(c(=O)n1C2)COC(=O)[C@]3(O)CC [SN-38] (first compound max 1 µM, 7x7, partner max 0.3 µM)",-0.0363,0.994,0.804,0.931
"CC1(C)CCC(CN2CCN(c3ccc(C(=O)NS(=O)(=O)c4ccc(NCC5CCOCC5)c([N+](=O)[O-])c4)c(Oc4cnc5[nH]ccc5c4)c3)CC2)=C(c2ccc(Cl)cc2)C1 [Venetoclax] + COc1cc(Nc2ncc3c(n2)-c2ccc(Cl)cc2C(c2c(F)cccc2OC)=NC3)ccc1C(=O)O [Alisertib] (first compound max 1 µM, 7x7, partner max 10 µM)",0.215,0.823,0.59,0.698
"Cc1c2c(nn1C)CSCc1cc(n(C)n1)CSc1cc(c3ccccc3c1)OCCCc1c(C(=O)O)n(C)c3c-2c(Cl)ccc13 [AZD5991] + C=CCn1c(=O)c2cnc(Nc3ccc(N4CCN(C)CC4)cc3)nc2n1-c1cccc(C(C)(C)O)n1 [AZD1775] (first compound max 1 µM, partner max 1 µM)",-0.0884,0.92,0.605,0.938
